Where two headings read alike, the source gives them in different places.
Tests used:
[1] = tested on: Escherichia coli; experiment: microbe, parasite or virus in culture; assay type: cell-based; details: antibiotic alone, Table 6, read-out: MIC of antibiotic, No compound
[2] = tested on: Enterococcus faecium; experiment: Checkerboard synergy (FICI) of antibiotics with SP-BIM; assay type: cell-based; details: Enterococcus faecium, Enterococcus faecium; for MIC: 24 h, antibiotic alone, read-out: MIC antibiotic only
[3] = tested on: Klebsiella pneumoniae; experiment: as above; assay type: cell-based; details: for MIC: 24 h, antibiotic alone, read-out: MIC antibiotic only
[4] = tested on: Escherichia coli; experiment: as above; set-up: MIC SP-BIM 13 only / MIC in combination: Antibiotic: unit not given beside the values; details: for MIC: 24 h
[5] = tested on: Candida albicans; experiment: as above; set-up: MIC SP-BIM 13 only / MIC in combination: Antibiotic / MIC antibiotic only: unit not given beside the values
[6] = tested on: Staphylococcus aureus; experiment: as above; assay type: cell-based; details: Staphylococcus aureus, Staphylococcus aureus; for MIC: 24 h, antibiotic alone, read-out: MIC antibiotic only
[7] = tested on: Streptococcus pneumoniae; experiment: Adjuvant broth microdilution (antibiotic MIC with SP-BIM at 50 μg/mL); assay type: cell-based; details: Streptococcus pneumoniae; Streptococcus pneumonia; antibiotic alone; Table 5; read-out: MIC of antibiotic, No compound
[8] = tested on: clinical antibiotic resistant isolates of MRSA; experiment: Checkerboard resistance breaking by SP-BIM 13; assay type: cell-based, Staphylococcus aureus; details: for FIC compound / Rescue concentration of SP-BIM 13: SP-BIM 13 with the labelled antibiotic; for Interpretation / Σ FIC: antibiotic + SP-BIM 13; for MIC of antibiotic only: antibiotic alone; for FIC antibiotic: combination with SP-BIM 13; for MIC of antibiotic in combination: with SP-BIM 13 at rescue concentration
[9] = tested on: Bacillus cereus; experiment: Checkerboard synergy (FICI) of antibiotics with SP-BIM; assay type: cell-based; details: for MIC: 24 h, antibiotic alone, read-out: MIC antibiotic only
[10] = tested on: MRSA; experiment: Adjuvant broth microdilution (antibiotic MIC with SP-BIM at 50 μg/mL); assay type: cell-based, Staphylococcus aureus; details: Staphylococcus aureus, antibiotic alone, Table 4, read-out: MIC of antibiotic, No compound
[11] = tested on: Streptococcus pneumoniae; experiment: Checkerboard synergy (FICI) of antibiotics with SP-BIM; assay type: cell-based; details: for MIC: 24 h, antibiotic alone, read-out: MIC antibiotic only
[12] = tested on: clinical strains of MRSA; experiment: Kirby Bauer disc diffusion susceptibility profile; assay type: cell-based, Staphylococcus aureus; details: for Zone of clearance: 35° C., 24 hours, average n=3; for Interpretive standard (resistant/susceptible): zones vs EUCAST breakpoints (Table 30)
[13] = SP-BIM 9 concentration in combination with the labelled antibiotic
[14] = SP-BIM 9 in combination with the labelled antibiotic
[15] = SP-BIM 13 in combination with the labelled antibiotic
[16] = antibiotic in combination with SP-BIM 9
[17] = antibiotic in combination with SP-BIM 13
[18] = MIC of the antibiotic in combination with SP-BIM 13
[19] = Streptococcus pneumonia (title: Streptococcus pyogenes), antibiotic + SP-BIM 9
[20] = Streptococcus pneumoniae, antibiotic + SP-BIM 13

[H]/N=C(/N)N[C@H]1[C@H](O)[C@@H](O)[C@H](O[C@@H]2O[C@@H](C)[C@](O)(C=O)[C@H]2O[C@@H]2O[C@@H](CO)[C@H](O)[C@@H](O)[C@@H]2NC)[C@@H](N/C(N)=N\[H])[C@@H]1O [Streptomycin, streptomycin]
MIC [1]: 8 µg/mL
MIC ([2]; SP-BIM 9 checkerboard): 32 µg/mL
MIC ([2]; SP-BIM 13 checkerboard): 32 µg/mL
MIC in combination, SP-BIM 9 [2, 13]: 16 µg/mL
FIC of SP-BIM 9 [2, 14]: 0.1
FIC of SP-BIM 13 [2, 15]: 0.5
Interpretation ([2]; antibiotic + SP-BIM 9): Synergy (Synergy: FICI≤0.5)
Σ FIC ([2]; antibiotic + SP-BIM 9): ≤0.3
Interpretation ([2]; antibiotic + SP-BIM 13): Additive (Additive: FICI>0.5-1.0)
Σ FIC ([2]; antibiotic + SP-BIM 13): 0.6
MIC in combination, Antibiotic [2, 16]: 8 µg/mL
MIC in combination, Antibiotic [2, 17]: 4 µg/mL
FIC of antibiotic ([2]; in combination with SP-BIM 9): 0.3
FIC of antibiotic ([2]; in combination with SP-BIM 13): 0.1
MIC ([3]; SP-BIM 9 checkerboard): 125 µg/mL
MIC ([3]; SP-BIM 13 checkerboard): 125 µg/mL
FIC of SP-BIM 9 [3, 14]: 0.5
FIC of SP-BIM 13 [3, 15]: 0.0
Interpretation ([3]; antibiotic + SP-BIM 9): Additive (Additive: FICI>0.5-1.0)
Σ FIC ([3]; antibiotic + SP-BIM 9): <0.6
Interpretation ([3]; antibiotic + SP-BIM 13): Synergy (Synergy: FICI≤0.5)
Σ FIC ([3]; antibiotic + SP-BIM 13): <0.3
MIC in combination, Antibiotic [3, 16]: 16 µg/mL
MIC in combination, Antibiotic [3, 17]: 32 µg/mL
FIC of antibiotic ([3]; in combination with SP-BIM 9): 0.128
FIC of antibiotic ([3]; in combination with SP-BIM 13): 0.3
MIC ([4]; read-out: MIC antibiotic only, Escherichia coli, antibiotic alone): 125 µg/mL
MIC ([4]; read-out: MIC antibiotic only, Escherichia coli, antibiotic alone, SP-BIM 9 checkerboard): 125 µg/mL
MIC in combination: Antibiotic [4, 18]: 4
FIC of SP-BIM 9 [4, 14]: 1
FIC of SP-BIM 13 [4, 15]: 0.3
Interpretation ([4]; antibiotic + SP-BIM 9): Indifferent (Indifferent: FICI>1.0-4.0)
Σ FIC ([4]; antibiotic + SP-BIM 9): <1.1
Interpretation ([4]; antibiotic + SP-BIM 13): Synergy (Synergy: FICI≤0.5)
Σ FIC ([4]; antibiotic + SP-BIM 13): <0.3
MIC in combination, Antibiotic [4, 16]: 8 µg/mL
FIC of antibiotic ([4]; combination with SP-BIM 13): 0.0
FIC of antibiotic ([4]; in combination with SP-BIM 9): 0.064
MIC ([5]; 24 h, read-out: MIC antibiotic only): > 250 µg/mL
MIC in combination: Antibiotic [5, 18]: 16
FIC of SP-BIM 13 [5, 15]: 0.1
Interpretation ([5]; antibiotic + SP-BIM 13): Synergy (Synergy: FICI≤0.5)
Σ FIC ([5]; antibiotic + SP-BIM 13): <0.2
FIC of antibiotic ([5]; combination with SP-BIM 13): 0.1
MIC ([6]; SP-BIM 9 checkerboard): 8 µg/mL
MIC ([6]; SP-BIM 13 checkerboard): 8 µg/mL
FIC of SP-BIM 9 [6, 14]: 0.25
FIC of SP-BIM 13 [6, 15]: 0.3
Interpretation ([6]; antibiotic + SP-BIM 9): Synergy (Synergy: FICI≤0.5)
Σ FIC ([6]; antibiotic + SP-BIM 9): <0.38
Interpretation ([6]; antibiotic + SP-BIM 13): Synergy (Synergy: FICI≤0.5)
Σ FIC ([6]; antibiotic + SP-BIM 13): 0.3
MIC in combination, Antibiotic [6, 16]: 1.0 µg/mL
MIC in combination, Antibiotic [6, 17]: 0.25 µg/mL
FIC of antibiotic ([6]; in combination with SP-BIM 9): 0.13
FIC of antibiotic ([6]; in combination with SP-BIM 13): 0.0
MIC [7]: 16 µg/mL
FIC compound ([8]; MRSA strain 1594): 0.004
Rescue concentration of SP-BIM 13 ([8]; MRSA strain 1594): 16 µg/mL
Interpretation ([8]; MRSA strain 1594): Synergy (Synergy: FICI≤0.5)
Σ FIC ([8]; MRSA strain 1594): <0.13
MIC of antibiotic only ([8]; MRSA strain 1594): 63 µg/mL
FIC antibiotic ([8]; MRSA strain 1594): 0.127
MIC of antibiotic in combination ([8]; MRSA strain 1594): 8 µg/mL
FIC compound ([8]; MRSA strain 5872): 0.064
Rescue concentration of SP-BIM 13 ([8]; MRSA strain 5872): 16 µg/mL
Interpretation ([8]; MRSA strain 5872): Synergy (Synergy: FICI≤0.5)
Σ FIC ([8]; MRSA strain 5872): <0.07
MIC of antibiotic only ([8]; MRSA strain 5872): 125 µg/mL
FIC antibiotic ([8]; MRSA strain 5872): 0.004
MIC of antibiotic in combination ([8]; MRSA strain 5872): 0.5 µg/mL
FIC compound ([8]; MRSA strain 7153): 0.064
Rescue concentration of SP-BIM 13 ([8]; MRSA strain 7153): 16 µg/mL
Interpretation ([8]; MRSA strain 7153): Synergy (Synergy: FICI≤0.5)
Σ FIC ([8]; MRSA strain 7153): <0.08
MIC of antibiotic only ([8]; MRSA strain 7153): 63 µg/mL
FIC antibiotic ([8]; MRSA strain 7153): 0.016
MIC of antibiotic in combination ([8]; MRSA strain 7153): 1 µg/mL
FIC compound ([8]; MRSA strain 7698): 0.032
Rescue concentration of SP-BIM 13 ([8]; MRSA strain 7698): 8 µg/mL
Interpretation ([8]; MRSA strain 7698): Synergy (Synergy: FICI≤0.5)
Σ FIC ([8]; MRSA strain 7698): <0.05
MIC of antibiotic only ([8]; MRSA strain 7698): 125 µg/mL
FIC antibiotic ([8]; MRSA strain 7698): 0.016
MIC of antibiotic in combination ([8]; MRSA strain 7698): 2 µg/mL
FIC compound ([8]; MRSA strain 10132): 0.064
Rescue concentration of SP-BIM 13 ([8]; MRSA strain 10132): 16 µg/mL
Interpretation ([8]; MRSA strain 10132): Synergy (Synergy: FICI≤0.5)
Σ FIC ([8]; MRSA strain 10132): <0.07
MIC of antibiotic only ([8]; MRSA strain 10132): 63 µg/mL
FIC antibiotic ([8]; MRSA strain 10132): 0.008
MIC of antibiotic in combination ([8]; MRSA strain 10132): 0.5 µg/mL
MIC ([9]; SP-BIM 9 checkerboard): 4 µg/mL
MIC ([9]; SP-BIM 13 checkerboard): 4 µg/mL
MIC in combination, SP-BIM 9 [9, 13]: >250 µg/mL
FIC of SP-BIM 9 [9, 14]: 1
FIC of SP-BIM 13 [9, 15]: 0.1
Interpretation ([9]; antibiotic + SP-BIM 9): Synergy (Synergy: FICI≤0.5)
Σ FIC ([9]; antibiotic + SP-BIM 9): <1.1
Interpretation ([9]; antibiotic + SP-BIM 13): Synergy (Synergy: FICI≤0.5)
Σ FIC ([9]; antibiotic + SP-BIM 13): <0.3
MIC in combination, Antibiotic [9, 16]: 0.5 µg/mL
MIC in combination, Antibiotic [9, 17]: 0.5 µg/mL
FIC of antibiotic ([9]; in combination with SP-BIM 9): 0.125
FIC of antibiotic ([9]; in combination with SP-BIM 13): 0.13
MIC [10]: 63 µg/mL
FIC of SP-BIM 9 ([11]; Streptococcus pneumonia (title: Streptococcus pyogenes), SP-BIM 9 in combination with the labelled antibiotic): 0.06
Interpretation [11, 19]: Synergy (Synergy: FICI≤0.5)
Σ FIC [11, 19]: <0.07
MIC in combination, Antibiotic ([11]; Streptococcus pneumonia (title: Streptococcus pyogenes), antibiotic in combination with SP-BIM 9): 0.2 µg/mL
FIC of antibiotic ([11]; Streptococcus pneumonia (title: Streptococcus pyogenes), in combination with SP-BIM 9): 0.01
MIC ([11]; Streptococcus pneumoniae, Streptococcus pneumonia (title: Streptococcus pyogenes), SP-BIM 9 checkerboard): 32 µg/mL
MIC ([11]; Streptococcus pneumoniae, Streptococcus pneumoniae, SP-BIM 13 checkerboard): 32 µg/mL
FIC of SP-BIM 13 ([11]; Streptococcus pneumoniae, SP-BIM 13 in combination with the labelled antibiotic): 0.3
Interpretation [11, 20]: Synergy (Synergy: FICI≤0.5)
Σ FIC [11, 20]: <0.3
MIC in combination, Antibiotic ([11]; Streptococcus pneumoniae, antibiotic in combination with SP-BIM 13): 1 µg/mL
FIC of antibiotic ([11]; Streptococcus pneumoniae, in combination with SP-BIM 13): 0.0
Zone of clearance ([12]; MRSA strain 1594): 11.5 mm
Interpretive standard (resistant/susceptible) ([12]; MRSA strain 1594): R
Zone of clearance ([12]; MRSA strain 1621): 17.0 mm
Interpretive standard (resistant/susceptible) ([12]; MRSA strain 1621): S
Zone of clearance ([12]; MRSA strain 5455): 17.0 mm
Interpretive standard (resistant/susceptible) ([12]; MRSA strain 5455): S
Zone of clearance ([12]; MRSA strain 5872): 8.0 mm
Interpretive standard (resistant/susceptible) ([12]; MRSA strain 5872): R
Zone of clearance ([12]; MRSA strain 7153): 16.0 mm
Interpretive standard (resistant/susceptible) ([12]; MRSA strain 7153): I
Zone of clearance ([12]; MRSA strain 7172): 18.5 mm
Interpretive standard (resistant/susceptible) ([12]; MRSA strain 7172): S
Zone of clearance ([12]; MRSA strain 7698): 12.0 mm
Interpretive standard (resistant/susceptible) ([12]; MRSA strain 7698): R
Zone of clearance ([12]; MRSA strain 10132): 8.5 mm
Interpretive standard (resistant/susceptible) ([12]; MRSA strain 10132): R
